Results from publication PMC2753520 (Journal of medicinal chemistry, 2009).

Assay: PAMPA passive permeability
Format: in vitro ADME
Details: pH 7.4

## CCCCCCOc1ccc(C(=O)CCN(C)C)c2ccccc12 [13{1}]
  Permeability (PAMPA, Pe): high permeability
